The source of these data is article PMC10694292, “Increased sinusoidal export of drug glucuronides is a compensative mechanism in liver cirrhosis of mice” (Frontiers in Pharmacology, 2023).

Series [1] in a line: Drug cocktail i.v. in CCl4-cirrhotic and control mice: plasma concentrations and AUC. The note with it: accompanying increased glucuronides.
Series [2] is described as follows: Drug cocktail i.v. in mice: 24 h urine, fraction of dose excreted. The settings on record: mice, after drug cocktail administration.
The conditions of series [3]: DrugBank, human; ref Wishart et al., 2017; cited from earlier work.
The conditions of series [4]: cited from earlier work.
The conditions of series [5]: cited from earlier work. This is another data set of the same source.
For series [6] the following is noted: rat, cited from earlier work.
The conditions of series [7]: rats; ref Fukuda et al., 2008; cited from earlier work.
The conditions of series [8]: ref Thiel et al., 2015, cited from earlier work.
For series [9] the following is noted: humans; ref Everett et al., 1991; cited from earlier work.
The conditions of series [10]: mouse, in vivo.
A further series deals with OATP1B1. Also on record: method as in Nakai et al., 2001. The note with it: human, experimental; ref Nakai et al., 2001; cited from earlier work.

Values after ≈ are worked out from the molar mass of the structure shown. Read-outs that look alike come from different tables or passages of the source.

As to `Cc1ncc2n1-c1ccc(Cl)cc1C(c1ccccc1F)=NC2` [Midazolam, midazolam], the “Measured plasma concentrations of parent compound in cirrhotic mice” value in [1] is “decreased”. In [2], the “Mean fraction of dose excreted to urine” value is on record as “below 1%”. The Fraction unbound is listed as 0.03 in [3]; 0.08 in series [4] (measurement, mouse, ref Varkhede et al., 2018); 0.046 in series [4] (species not given, ref Maurer et al., 2005, Schenk et al., 2017); 0.027 in [6] (ref Poulin and Theil, 2002). In series [5] (Ref pH: 6.5, ref Heikkinen et al., 2012), the Solubility is 50 µg/mL (≈ 0.153 mM). In addition, the Lipophilicity in series [5] (measurement, ref Poulin and Theil, 2002) is on record as 2.95; in series [5] (optimized (mouse), ref Schenk et al., 2017), 3.33; in series [5] (optimized, ref Britz et al., 2019) it was 3.13; in [5] (prediction, ref Wishart et al., 2017), 3.89. The pKa in series [5] (midazolam: experimental, ref Poulin and Theil, 2002) is reported as 5.82; in [5] (prediction, ref Nguyen et al., 2016), 6.04; in series [5] (ref Schenk et al., 2017) it was 6.14. In series [5] (ref Wishart et al., 2017), the “pKa (Base)” value is 6.57.

As to `CC[C@H](C)C(=O)O[C@H]1C[C@H](O)C=C2C=C[C@H](C)[C@H](CC[C@@H](O)C[C@@H](O)CC(=O)O)[C@H]21` [Pravastatin, pravastatin], the “Dose found in bile” value in series [7] is reported as “about 60%”. For the same compound, the Solubility in series [5] (DrugBank, ref Wishart et al., 2017) is 10000 µg/mL (≈ 23.6 mM). In addition, the Lipophilicity in [5] (MSDS, ref Wishart et al., 2017) was 0.59; in series [5] (experimental pH=5, ref Serajuddin et al., 1991) it was 1.6; in [5] (experimental pH=7, ref Serajuddin et al., 1991) it was -0.23; in series [5] (human, optimized, ref Lippert et al., 2012), 0.82. In addition, in series [5] (ref Wishart et al., 2017, Puttegowda et al., 2016), the “pKa (Acid)” value is 4.2. Also, in series [8] (Oatp1b2, optimized for mice with measured human Km), the Vmax is 2.5 µmol/L/min. The Fraction unbound in [8] (mouse, optimized (talinolol: possibly optimized)) is on record as 0.73; in series [6] (ref Fukuda et al., 2008) it was 0.672. Besides, the “Dose recovered unchanged from urine” value in series [9] is given as “about 41%”. In addition, the “Mean fraction of dose excreted to urine” value in series [10] was “Less than 1%”. The “Fraction of dose in urine (24 h), cirrhotic vs control mice” value in series [10] (iv) was “increased significantly”. For the same compound, the Km with OATP1B1 was 11.5 µM.

Broadly, the Solubility is the concentration that dissolves in the medium under given conditions. What is called pKa is the negative logarithm of the acid dissociation constant. In general, Vmax refers to the rate approached at saturating substrate. As a reminder, the Km is the substrate concentration at which the rate is half of its maximum.
